Experimental data reported in ChEMBL document CHEMBL1201862, “PubChem BioAssay data set” (2004).
Activity calls are given as the source filed them.

How the values were obtained:
[1] = molecular target: T1, Histone-lysine N-methyltransferase NSD2 (Homo sapiens, UniProt O96028); format: biochemical
T1 sequence (O96028 whole entry): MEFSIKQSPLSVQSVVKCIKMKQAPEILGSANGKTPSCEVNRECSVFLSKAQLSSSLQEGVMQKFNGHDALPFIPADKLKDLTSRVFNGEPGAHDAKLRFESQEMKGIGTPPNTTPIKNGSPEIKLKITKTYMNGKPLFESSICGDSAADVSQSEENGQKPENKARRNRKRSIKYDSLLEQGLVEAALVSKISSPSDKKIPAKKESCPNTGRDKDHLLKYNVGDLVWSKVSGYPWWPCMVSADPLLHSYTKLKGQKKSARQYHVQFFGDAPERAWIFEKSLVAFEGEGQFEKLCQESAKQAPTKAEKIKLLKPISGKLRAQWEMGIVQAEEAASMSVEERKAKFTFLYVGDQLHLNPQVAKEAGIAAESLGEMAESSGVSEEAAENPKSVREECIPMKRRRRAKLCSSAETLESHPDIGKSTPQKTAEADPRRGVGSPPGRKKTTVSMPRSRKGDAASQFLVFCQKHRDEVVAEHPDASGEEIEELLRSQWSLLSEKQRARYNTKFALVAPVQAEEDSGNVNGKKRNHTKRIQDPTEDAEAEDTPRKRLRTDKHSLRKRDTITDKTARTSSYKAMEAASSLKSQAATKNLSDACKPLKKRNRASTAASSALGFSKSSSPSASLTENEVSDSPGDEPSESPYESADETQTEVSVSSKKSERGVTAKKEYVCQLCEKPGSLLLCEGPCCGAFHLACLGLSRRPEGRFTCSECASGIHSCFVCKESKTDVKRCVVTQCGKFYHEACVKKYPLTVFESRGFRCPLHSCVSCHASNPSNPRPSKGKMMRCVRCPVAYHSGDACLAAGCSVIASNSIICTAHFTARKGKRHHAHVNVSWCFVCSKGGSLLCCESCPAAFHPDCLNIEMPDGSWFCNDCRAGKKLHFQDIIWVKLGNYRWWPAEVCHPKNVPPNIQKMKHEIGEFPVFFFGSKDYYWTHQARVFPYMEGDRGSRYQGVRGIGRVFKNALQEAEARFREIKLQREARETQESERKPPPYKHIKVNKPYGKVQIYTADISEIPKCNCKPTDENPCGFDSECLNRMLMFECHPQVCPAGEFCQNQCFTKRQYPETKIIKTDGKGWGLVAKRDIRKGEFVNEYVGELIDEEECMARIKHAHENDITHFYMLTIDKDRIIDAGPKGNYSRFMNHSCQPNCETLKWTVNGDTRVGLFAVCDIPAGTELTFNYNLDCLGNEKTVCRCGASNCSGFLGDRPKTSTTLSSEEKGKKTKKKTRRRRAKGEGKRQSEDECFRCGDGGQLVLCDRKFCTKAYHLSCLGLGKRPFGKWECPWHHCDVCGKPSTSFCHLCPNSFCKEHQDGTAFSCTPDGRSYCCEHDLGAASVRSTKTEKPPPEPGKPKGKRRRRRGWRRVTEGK

[2] = molecular target: T2, Apoptotic protease-activating factor 1 (Homo sapiens, UniProt O14727); format: functional
T2 sequence (O14727 whole entry): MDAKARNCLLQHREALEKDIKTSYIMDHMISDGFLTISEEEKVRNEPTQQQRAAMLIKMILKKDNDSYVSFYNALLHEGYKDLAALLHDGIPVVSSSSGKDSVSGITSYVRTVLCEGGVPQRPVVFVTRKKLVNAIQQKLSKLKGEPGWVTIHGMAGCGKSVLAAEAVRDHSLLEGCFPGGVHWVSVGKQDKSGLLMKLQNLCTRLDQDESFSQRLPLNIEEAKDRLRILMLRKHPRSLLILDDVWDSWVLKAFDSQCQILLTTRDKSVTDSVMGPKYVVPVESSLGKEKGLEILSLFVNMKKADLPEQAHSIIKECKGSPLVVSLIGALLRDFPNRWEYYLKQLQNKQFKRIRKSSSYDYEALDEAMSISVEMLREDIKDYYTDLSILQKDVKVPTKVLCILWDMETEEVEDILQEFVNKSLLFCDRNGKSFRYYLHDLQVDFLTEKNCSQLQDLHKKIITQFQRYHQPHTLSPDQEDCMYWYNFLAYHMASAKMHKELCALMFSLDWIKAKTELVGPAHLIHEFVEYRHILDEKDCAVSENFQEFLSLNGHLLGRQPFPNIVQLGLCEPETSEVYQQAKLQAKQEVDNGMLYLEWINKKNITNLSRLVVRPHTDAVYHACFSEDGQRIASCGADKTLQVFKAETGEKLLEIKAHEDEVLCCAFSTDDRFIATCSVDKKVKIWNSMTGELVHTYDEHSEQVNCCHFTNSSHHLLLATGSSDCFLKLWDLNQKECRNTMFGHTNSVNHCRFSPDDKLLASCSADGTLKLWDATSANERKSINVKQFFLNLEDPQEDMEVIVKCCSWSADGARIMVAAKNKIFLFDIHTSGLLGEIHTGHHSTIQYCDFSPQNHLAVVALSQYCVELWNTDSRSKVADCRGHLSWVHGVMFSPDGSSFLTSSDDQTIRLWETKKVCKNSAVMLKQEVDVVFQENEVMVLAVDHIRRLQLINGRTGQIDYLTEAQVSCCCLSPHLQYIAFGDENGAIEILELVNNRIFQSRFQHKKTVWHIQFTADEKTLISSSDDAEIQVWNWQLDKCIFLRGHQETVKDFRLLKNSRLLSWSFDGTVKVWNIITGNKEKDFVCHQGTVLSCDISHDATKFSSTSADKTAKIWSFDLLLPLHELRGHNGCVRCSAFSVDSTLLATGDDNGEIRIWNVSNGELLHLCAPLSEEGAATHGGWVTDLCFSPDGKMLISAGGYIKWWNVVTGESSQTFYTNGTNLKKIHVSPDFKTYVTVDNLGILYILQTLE

| Compound | AC50 [1] | IC50 [2] |
| --- | --- | --- |
| CC1CC(C)CN(C(=O)c2ccc3c(c2NCCO)C(=O)c2ccccc2C3=O)C1 (configuration not stated) | 19.3 µM (active) | – |
| CCC(=O)N(C1=C(NC)C(=O)c2ccccc2C1=O)C(C)C | – | 20.8 µM (active) |
